One series addresses T1, purified porcine DPP-4 (Sus scrofa, UniProt P22411).
T1 construct: purchased Sigma-Aldrich, Dorset, UK
Kind of series: DPP-4 degradation / in vitro DPP-4 half-life. The format is in vitro ADME. To be noted: incubated in the presence of DPP-4 for up to 12 hs. As for the experimental part: (§1) For calculation of experimental molecular masses, peptide samples (1 μg) were mixed with α-cyano-4-hydroxycinnamic acid (1 μg) and applied to a Voyager-DE BioSpectrometry Workstation and mass-to-charge (m/z) ratio verses peak intensity recorded by MALDI-TOF mass spectrometry. […] Degradation profiles were obtained using rp-HPLC analysis and HPLC peak area data used to calculate percentage intact peptide remaining at each time point.
(§2) Briefly, polypeptides (20 μg) were incubated with 5 μl of purified DPP-4 (5 mU, Sigma-Aldrich, Dorset, UK) in 50 mM TEA-HCl (pH 7.8; final volume 450 μl) at 37° C. for 0, 1, 4 and 12 hours. Enzymatic reactions were terminated by the addition of 50 μl TFA/H2O (10% v/v, Sigma-Aldrich, Dorset, UK). Reaction products were then separated by HPLC and analysed using MALDI-TOF.

Another series addresses T2, DPP-4 (Sus scrofa, UniProt P22411).
T2 construct: purchased Sigma-Aldrich, Dorset, UK
The experiment in a line: DPP-4 degradation / in vitro DPP-4 half-life. The format is in vitro ADME, porcine. As to conditions: pig; 37° C., 50 mmol/L TEA-HCl pH 7.8, 5 mU purified porcine DPP-4, 0-12 h. As for the experimental part: as §1, §2

Usually half-life stands for the time in which the quantity being followed falls by half. A lower half-life goes with rapid decline.

T2 sequence (P22411 whole entry): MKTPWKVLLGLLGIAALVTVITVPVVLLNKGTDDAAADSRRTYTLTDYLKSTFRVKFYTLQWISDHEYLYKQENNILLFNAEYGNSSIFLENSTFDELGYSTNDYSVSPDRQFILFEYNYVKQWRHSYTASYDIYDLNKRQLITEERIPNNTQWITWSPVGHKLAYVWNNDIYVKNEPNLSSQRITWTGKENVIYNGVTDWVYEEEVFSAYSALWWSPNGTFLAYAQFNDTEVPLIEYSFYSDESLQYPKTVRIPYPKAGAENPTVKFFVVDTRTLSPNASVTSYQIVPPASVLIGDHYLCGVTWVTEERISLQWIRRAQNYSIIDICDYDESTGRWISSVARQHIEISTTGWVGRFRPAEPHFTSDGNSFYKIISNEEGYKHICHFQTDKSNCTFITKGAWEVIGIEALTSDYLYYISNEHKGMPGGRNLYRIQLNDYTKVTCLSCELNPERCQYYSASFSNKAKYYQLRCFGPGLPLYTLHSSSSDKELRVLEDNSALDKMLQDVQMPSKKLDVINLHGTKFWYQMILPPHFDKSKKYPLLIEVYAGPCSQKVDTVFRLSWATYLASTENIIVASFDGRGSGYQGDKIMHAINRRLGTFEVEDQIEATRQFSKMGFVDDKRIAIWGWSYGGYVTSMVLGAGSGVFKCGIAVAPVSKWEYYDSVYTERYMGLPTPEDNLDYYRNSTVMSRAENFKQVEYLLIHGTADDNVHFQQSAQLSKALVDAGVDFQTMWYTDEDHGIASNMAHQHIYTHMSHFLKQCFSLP
T1 sequence (P22411 whole entry): as above

For the compound `CC[C@H](C)[C@H](NC(=O)[C@H](CO)NC(=O)[C@H](Cc1ccc(O)cc1)NC(=O)[C@H](CC(=O)O)NC(=O)[C@H](CO)NC(=O)[C@@H](NC(=O)[C@H](Cc1ccccc1)NC(=O)[C@@H](NC(=O)CNC(=O)[C@H](CCC(=O)O)NC(=O)[C@@H](C)NC(=O)[C@@H](N)Cc1ccc(O)cc1)[C@@H](C)O)[C@@H](C)CC)C(=O)N[C@@H](C)C(=O)N[C@@H](CCSC)C(=O)N[C@@H](CC(=O)O)C(=O)N[C@@H](CCCCN)C(=O)N[C@H](C(=O)N[C@@H](Cc1c[nH]cn1)C(=O)N[C@@H](CCC(N)=O)C(=O)N[C@@H](CCC(N)=O)C(=O)N[C@@H](CC(=O)O)C(=O)N[C@@H](Cc1ccccc1)C(=O)N[C@H](C(=O)N[C@@H](CC(N)=O)C(=O)N[C@@H](Cc1c[nH]c2ccccc12)C(=O)N[C@@H](CC(C)C)C(=O)N[C@@H](CC(C)C)C(=O)N[C@@H](C)C(=O)N[C@@H](CCC(N)=O)C(=O)N[C@@H](CCCCN)C(=O)NCC(=O)N[C@@H](CCCCN)C(=O)N[C@@H](CCCCN)C(=O)N[C@@H](CC(N)=O)C(=O)N[C@@H](CC(=O)O)C(=O)N[C@@H](Cc1c[nH]c2ccccc12)C(=O)N[C@@H](CCCCN)C(=O)N[C@@H](Cc1c[nH]cn1)C(=O)N[C@@H](CC(N)=O)C(=O)N[C@H](C(=O)N[C@H](C(=O)N[C@@H](CCC(N)=O)C(=O)O)[C@@H](C)O)[C@@H](C)CC)C(C)C)[C@@H](C)CC` [(DAla2)GIP, TYR-(d)ALA-GLU-GLY-THR-PHE-ILE-SER-ASP-TYR-SER-ILE-ALA-MET-ASP-LYS-ILE-HIS-GLN-GLN-ASP-PHE-VAL-ASN-TRP-LEU-LEU-ALA-GLN-LYS-GLY-LYS-LYS-ASN-ASP-TRP-LYS-HIS-ASN-ILE-THR-GLN], the “Intactness on incubation with DPP-4” value at purified porcine DPP-4 was “remained fully intact”. The compound also came in with a half-life on DPP-4 above 12 h.

(Values after patent US11738065B2, “Polypeptides and analogues thereof for use in the treatment of diabetes and bone disorders” (UNIVERSITY OF ULSTER, priority 2015, dated 2023).)
